Laboratory results reported in PubChem BioAssay AID330 (DTP/NCI, 2004).
Values joined by “and” are separate entries in the source; they are usually repeats but may differ in a detail not shown here. Identical values can stand only once. Toxic doses and inconclusive results are not listed.

Tested on: P388 leukemia ip, CD2F1 mice, survival T/C
Test: NCI In Vivo Anticancer Drug Screen. Data for tumor model P388 Leukemia (intraperitoneal) in CD2F1 (CDF1) mice
Settings: endpoint: median survival time, higher = longer survival
Summary of the method: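 Mice carrying the transplanted tumor received test compound or vehicle. Survival was recorded in each group, and the value is the treated-group measurement divided by that of the vehicle-treated control group.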

[1] = dose: 30.0 mg/kg/injection, schedule: Q01DX005 (ip), vehicle: saline
[2] = dose: 50.0 mg/kg/injection, schedule: Q01DX009 (ip), vehicle: saline with Tween-80
[3] = dose: 100.0 mg/kg/injection, schedule: Q01DX009 (ip), vehicle: saline with Tween-80
[4] = dose: 200.0 mg/kg/injection, schedule: Q01DX009 (ip), vehicle: saline with Tween-80
[5] = dose: 60.0 mg/kg/injection, schedule: Q01DX005 (ip), vehicle: saline with Tween-80
[6] = dose: 120.0 mg/kg/injection, schedule: Q01DX005 (ip), vehicle: saline with Tween-80
[7] = dose: 240.0 mg/kg/injection, schedule: Q01DX005 (ip), vehicle: saline with Tween-80
[8] = dose: 50.0 mg/kg/injection, schedule: Q01DX005 (ip), vehicle: saline with Tween-80
[9] = dose: 100.0 mg/kg/injection, schedule: Q01DX005 (ip), vehicle: saline with Tween-80
[10] = dose: 100.0 mg/kg/injection, schedule: Q04DX002 (ip), vehicle: saline with Tween-80
[11] = dose: 200.0 mg/kg/injection, schedule: Q04DX002 (ip), vehicle: saline with Tween-80
[12] = dose: 400.0 mg/kg/injection, schedule: Q04DX002 (ip), vehicle: saline with Tween-80
[13] = dose: 100.0 mg/kg/injection, schedule: Q01DX009 (ip), vehicle: Klucel (hydroxypropylcellulose) (HPC)
[14] = dose: 200.0 mg/kg/injection, schedule: Q01DX009 (ip), vehicle: Klucel (hydroxypropylcellulose) (HPC)
[15] = dose: 25.0 mg/kg/injection, schedule: Q01DX009 (ip), vehicle: saline with Tween-80
[16] = dose: 25.0 mg/kg/injection, schedule: Q01DX005 (ip), vehicle: saline with Tween-80
[17] = dose: 12.5 mg/kg/injection, schedule: Q01DX009 (ip), vehicle: saline with Tween-80

COC(=O)c1cc(C=C(C)C)[nH]c(=O)c1C#N
T/C [1]: 99 % of control | T/C (dose: 60.0 mg/kg/injection, schedule: Q01DX005 (ip), vehicle: saline): 100 % of control and 107 % of control | T/C (dose: 120.0 mg/kg/injection, schedule: Q01DX005 (ip), vehicle: saline): 107 % of control

NC(=O)Cc1nc(O)cs1
T/C (dose: 60.0 mg/kg/injection, schedule: Q01DX005 (ip), vehicle: Klucel (hydroxypropylcellulose) (HPC)): 102 % of control | T/C (dose: 120.0 mg/kg/injection, schedule: Q01DX005 (ip), vehicle: Klucel (hydroxypropylcellulose) (HPC)): 101 % of control | T/C (dose: 240.0 mg/kg/injection, schedule: Q01DX005 (ip), vehicle: Klucel (hydroxypropylcellulose) (HPC)): 109 % of control

CCOC(=O)N(C)N=NC
T/C (dose: 3.75 mg/kg/injection, schedule: Q01DX005 (ip), vehicle: saline): 100 % of control | T/C (dose: 7.5 mg/kg/injection, schedule: Q01DX005 (ip), vehicle: saline): 107 % of control and 109 % of control | T/C (dose: 15.0 mg/kg/injection, schedule: Q01DX005 (ip), vehicle: saline): 105 % of control | T/C [1]: 120 % of control

CCCOc1cc2c(cc1C(C)(C)c1ccc(OC)cc1)OCO2
T/C (dose: 50.0 mg/kg/injection, schedule: Q01DX005 (ip), vehicle: saline + Tween-80 + alcohol): 102 % of control | T/C (dose: 100.0 mg/kg/injection, schedule: Q01DX005 (ip), vehicle: saline + Tween-80 + alcohol): 111 % of control | T/C (dose: 200.0 mg/kg/injection, schedule: Q01DX005 (ip), vehicle: saline + Tween-80 + alcohol): 95 % of control

Clc1ccc(CSCc2c(CSCc3ccc(Cl)cc3)c(CSCc3ccc(Cl)cc3)c(CSCc3ccc(Cl)cc3)c(CSCc3ccc(Cl)cc3)c2CSCc2ccc(Cl)cc2)cc1
T/C [2]: 102 % of control | T/C [3]: 102 % of control | T/C [4]: 99 % of control

CCOc1cccc(Cc2c[nH]c(=O)[nH]c2=O)c1
T/C [5]: 94 % of control | T/C [6]: 92 % of control | T/C [7]: 90 % of control

Cc1ccc(C2COc3cc(O)c(O)cc3C2)cc1 (stereo unspecified)
T/C [5]: 103 % of control | T/C [6]: 105 % of control | T/C [7]: 117 % of control

NC(Cc1ccc(O)cc1)C(=O)N/N=C/c1ccc2c(c1)OCO2 (stereo unspecified)
T/C [8]: 92 % of control | T/C [9]: 99 % of control | T/C (dose: 200.0 mg/kg/injection, schedule: Q01DX005 (ip), vehicle: saline with Tween-80): 103 % of control

COc1cc(OC2OC(CO)C(O)C(O)C2O)ccc1/C=C\C(=O)c1ccc(O)cc1 (stereo unspecified)
T/C [10]: 96 % of control | T/C [11]: 90 % of control | T/C [12]: 91 % of control

c1ccc(-c2ncc3n(-c4ccccc4)cnn23)cc1
T/C [10]: 95 % of control | T/C [11]: 86 % of control | T/C [12]: 89 % of control

CN1CC2(C)CCCC(C)(C1)C2O (stereo unspecified)
T/C [8]: 106 % of control | T/C [9]: 98 % of control

CN(C)c1ccc(/C=C/c2ccc3ccccc3[n+]2C)cc1
T/C (dose: 1.0 mg/kg/injection, schedule: Q01DX009 (ip), vehicle: saline sonified): 123 % of control | T/C (dose: 1.5 mg/kg/injection, schedule: Q01DX009 (ip), vehicle: saline sonified): 123 % of control | T/C (dose: 2.3 mg/kg/injection, schedule: Q01DX009 (ip), vehicle: saline sonified): 119 % of control | T/C (dose: 6.25 mg/kg/injection, schedule: Q04DX003 (ip), vehicle: saline sonified): 100 % of control | T/C (dose: 12.5 mg/kg/injection, schedule: Q04DX003 (ip), vehicle: saline sonified): 109 % of control | T/C (dose: 25.0 mg/kg/injection, schedule: Q04DX003 (ip), vehicle: saline sonified): 113 % of control

CC(C)OC1CC(C)(O)Cc2cc3c(c(O)c21)C(=O)c1c(O)cc2c(c1C3=O)OC1OC2(C)C(O)C(N(C)C)C1O (stereo unspecified)
T/C (dose: 2.0 mg/kg/injection, schedule: Q01DX009 (ip), vehicle: other): 101 % of control | T/C (dose: 4.0 mg/kg/injection, schedule: Q01DX009 (ip), vehicle: other): 120 % of control | T/C (dose: 8.0 mg/kg/injection, schedule: Q01DX009 (ip), vehicle: other): 106 % of control | T/C (dose: 16.0 mg/kg/injection, schedule: Q01DX009 (ip), vehicle: other): 87 % of control

Cc1ccc(N=C2C(=O)Nc3ccccc32)cc1
T/C (dose: 50.0 mg/kg/injection, schedule: Q04DX002 (ip), vehicle: saline with Tween-80): 108 % of control | T/C [10]: 105 % of control | T/C [11]: 104 % of control

O=[N+]([O-])C(CO)C(CO)[N+](=O)[O-] (stereo unspecified)
T/C [13]: 110 % of control | T/C (dose: 100.0 mg/kg/injection, schedule: Q01DX009 (ip), vehicle: suspension in saline): 103 % of control | T/C [14]: 108 % of control | T/C (dose: 200.0 mg/kg/injection, schedule: Q01DX009 (ip), vehicle: suspension in saline): 100 % of control | T/C (dose: 400.0 mg/kg/injection, schedule: Q01DX009 (ip), vehicle: Klucel (hydroxypropylcellulose) (HPC)): 111 % of control | T/C (dose: 400.0 mg/kg/injection, schedule: Q01DX009 (ip), vehicle: suspension in saline): 109 % of control

CN(C)c1cc(N(C)C)c2cc(-c3ccccc3)sc2n1
T/C (dose: 50.0 mg/kg/injection, schedule: Q01DX009 (ip), vehicle: Klucel (hydroxypropylcellulose) (HPC)): 98 % of control | T/C [13]: 103 % of control | T/C [14]: 96 % of control

COc1ccc(CCN2C(=O)CC(CC3=NCCc4cc(OC)c(OC)cc43)CC2=O)cc1OC
T/C (dose: 50.0 mg/kg/injection, schedule: Q01DX005 (ip), vehicle: saline): 103 % of control | T/C (dose: 100.0 mg/kg/injection, schedule: Q01DX005 (ip), vehicle: saline): 95 % of control

COc1cc(/C=C/[N+](=O)[O-])c(OC)cc1Br
T/C [15]: 122 % of control

O=C1c2ccccc2C(=O)C1(Br)c1ccccc1
T/C [10]: 99 % of control | T/C [11]: 101 % of control

NC(CNC(=O)CBr)C(=O)O (stereo unspecified)
T/C (dose: 6.25 mg/kg/injection, schedule: Q01DX005 (ip), vehicle: water): 117 % of control and 118 % of control | T/C (dose: 100.0 mg/kg/injection, schedule: Q01DX005 (ip), vehicle: water): 152 % of control

COc1ccc([N+](=O)[O-])cc1NOC(C)=O
T/C (dose: 100.0 mg/kg/injection, schedule: Q04DX003 (ip), vehicle: Klucel (hydroxypropylcellulose) (HPC)): 111 % of control | T/C (dose: 200.0 mg/kg/injection, schedule: Q04DX003 (ip), vehicle: Klucel (hydroxypropylcellulose) (HPC)): 119 % of control | T/C (dose: 400.0 mg/kg/injection, schedule: Q04DX003 (ip), vehicle: Klucel (hydroxypropylcellulose) (HPC)): 94 % of control

O=NN(CCF)C(=O)Oc1cc(Cl)c(Cl)cc1Cl
T/C (dose: 12.0 mg/kg/injection, schedule: Q01DX005 (ip), vehicle: saline with Tween-80): 170 % of control | T/C [16]: 202 % of control

CC(C(=O)O)C1(O)CCCCC1 (stereo unspecified)
T/C [17]: 99 % of control | T/C [15]: 105 % of control | T/C [2]: 102 % of control | T/C [3]: 106 % of control

COC(=O)/N=C1\C(=O)C=CC(O)=C1C(N)=O
T/C (dose: 6.25 mg/kg/injection, schedule: Q01DX005 (ip), vehicle: saline with Tween-80): 90 % of control | T/C (dose: 12.5 mg/kg/injection, schedule: Q01DX005 (ip), vehicle: saline with Tween-80): 94 % of control | T/C [16]: 92 % of control

Cc1ccc(S(=O)(=O)N2CCCCN(S(=O)(=O)c3ccc(C)cc3)COC2)cc1
T/C (dose: 50.0 mg/kg/injection, schedule: Q01DX005 (ip), vehicle: Klucel (hydroxypropylcellulose) (HPC)): 101 % of control | T/C (dose: 100.0 mg/kg/injection, schedule: Q01DX005 (ip), vehicle: Klucel (hydroxypropylcellulose) (HPC)): 101 % of control | T/C (dose: 200.0 mg/kg/injection, schedule: Q01DX005 (ip), vehicle: Klucel (hydroxypropylcellulose) (HPC)): 102 % of control

CCCOc1c(C)cc(C(=O)CCN2CCOCC2)cc1Cl
T/C [2]: 113 % of control | T/C [3]: 112 % of control | T/C [4]: 99 % of control

CCCCc1cc(-c2ccc(C)cc2)c(CCCC)c2c1-c1cccc3cccc-2c13
T/C (dose: 100.0 mg/kg/injection, schedule: Q04DX003 (ip), vehicle: saline with Tween-80): 98 % of control | T/C (dose: 200.0 mg/kg/injection, schedule: Q04DX003 (ip), vehicle: saline with Tween-80): 91 % of control | T/C (dose: 400.0 mg/kg/injection, schedule: Q04DX003 (ip), vehicle: saline with Tween-80): 92 % of control

NNC(=O)CCCCCCCCCCCCCCCO
T/C [17]: 97 % of control | T/C [15]: 88 % of control | T/C [2]: 88 % of control
